Results as given in ChEMBL document CHEMBL3045013, “Suppression of pine wilt disease by an antibacterial agent, oxolinic acid” (2010).
Active and inactive are the calls of the source. The rule behind the calls is not given here.

How the values were obtained:
[1] = test system: Enterobacter asburiae; experiment: Antibacterial activity against Enterobacter asburiae KRICT3 at 1.6 mg/l after 24 hr; assay type: functional, organism-based
[2] = test system: Serratia marcescens; experiment: Antibacterial activity against Serratia marcescens subsp. marcescens KRICT4 at 1.6 mg/l after 24 hr; assay type: functional, organism-based
[3] = test system: Bursaphelenchus xylophilus; experiment: (§1) Nematicidal activity against Bursaphelenchus xylophilus in pot-grown three-year-old trees of Pinus densiflora assessed as reduction of disease incidence at 3.6 mg/seedlings treated 7 days before inoculation measured after 1 month by measuring dead seedling under greenhouse condition relative to control; assay type: functional; parameters: scale not given: the % may be the effect or the level left
[4] = test system: Bursaphelenchus xylophilus; experiment: Nematicidal activity against Bursaphelenchus xylophilus in pot-grown three-year-old trees of Pinus densiflora assessed as reduction of disease incidence at 3.6 mg/seedlings treated 7 days before inoculation measured after 1 month by measuring dead seedling under greenhouse condition; assay type: functional; parameters: scale not given: the % may be the effect or the level left
[5] = test system: Bursaphelenchus xylophilus; experiment: Nematicidal activity against Bursaphelenchus xylophilus in pot-grown three-year-old trees of Pinus densiflora assessed as reduction of disease incidence at 2% treated 3 months before inoculation measured after 9 months by measuring dead trees relative to control; assay type: functional; parameters: scale not given: the % may be the effect or the level left
[6] = test system: Bursaphelenchus xylophilus; experiment: Nematicidal activity against Bursaphelenchus xylophilus assessed as mortality at 0.34 mg/l after 48 hr; assay type: functional
[7] = test system: Bursaphelenchus xylophilus; experiment: Nematicidal activity against Bursaphelenchus xylophilus in pot-grown three-year-old trees of Pinus densiflora assessed as reduction of disease incidence at 2% treated 3 months before inoculation measured after 9 months by measuring dead trees; assay type: functional; parameters: scale not given: the % may be the effect or the level left
[8] = test system: Bursaphelenchus xylophilus; experiment: Nematicidal activity against Bursaphelenchus xylophilus in pot-grown three-year-old trees of Pinus densiflora assessed as reduction of disease incidence at 3 mg/seedlings treated 7 days before inoculation measured after 1 month by measuring dead seedling under greenhouse condition; assay type: functional; parameters: scale not given: the % may be the effect or the level left
[9] = test system: Bursaphelenchus xylophilus; experiment: as §1, with “30” for “3.6”; assay type: functional; parameters: scale not given: the % may be the effect or the level left
[10] = test system: Bursaphelenchus xylophilus; experiment: Nematicidal activity against Bursaphelenchus xylophilus in pot-grown three-year-old trees of Pinus densiflora assessed as reduction of disease incidence at 30 mg/seedlings treated 7 days before inoculation measured after 1 month by measuring dead seedling under greenhouse condition; assay type: functional; parameters: scale not given: the % may be the effect or the level left
[11] = test system: Bursaphelenchus xylophilus; experiment: as §1, with “10” for “3.6”; assay type: functional; parameters: scale not given: the % may be the effect or the level left
[12] = test system: Bursaphelenchus xylophilus; experiment: Nematicidal activity against Bursaphelenchus xylophilus assessed as mortality at 10 mg/l after 48 hr; assay type: functional
[13] = test system: Ewingella americana; experiment: Antibacterial activity against Ewingella americana KRICT5 at 1.6 mg/l after 24 hr; assay type: functional, organism-based
[14] = test system: Bursaphelenchus xylophilus; experiment: as §1, with “3” for “3.6”; assay type: functional; parameters: scale not given: the % may be the effect or the level left
[15] = test system: Bursaphelenchus xylophilus; experiment: Nematicidal activity against Bursaphelenchus xylophilus in pot-grown three-year-old trees of Pinus densiflora assessed as reduction of disease incidence at 10% treated 3 months before inoculation measured after 9 months by measuring dead trees relative to control; assay type: functional; parameters: scale not given: the % may be the effect or the level left
[16] = test system: Bursaphelenchus xylophilus; experiment: Nematicidal activity against Bursaphelenchus xylophilus in pot-grown three-year-old trees of Pinus densiflora assessed as reduction of disease incidence at 10 mg/seedlings treated 7 days before inoculation measured after 1 month by measuring dead seedling under greenhouse condition; assay type: functional; parameters: scale not given: the % may be the effect or the level left
[17] = test system: Peribacillus frigoritolerans; experiment: Antibacterial activity against [Brevibacterium] frigoritolerans KRICT2 at 1.6 mg/l after 24 hr; assay type: functional, organism-based
[18] = test system: Bursaphelenchus xylophilus; experiment: Nematicidal activity against Bursaphelenchus xylophilus in pot-grown three-year-old trees of Pinus densiflora assessed as reduction of disease incidence at 10% treated 3 months before inoculation measured after 9 months by measuring dead trees; assay type: functional; parameters: scale not given: the % may be the effect or the level left

| Compound | Activity [1] | Activity [2] | Activity [3] | Activity [4] | Activity [5] | Activity [6] | Activity [7] | Activity [8] | Activity [9] | Activity [10] | Activity [11] | Activity [12] | Activity [13] | Activity [14] | Activity [15] | Activity [16] | Activity [17] | Activity [18] |
| --- | --- | --- | --- | --- | --- | --- | --- | --- | --- | --- | --- | --- | --- | --- | --- | --- | --- | --- |
| CN(C)[C@@H]1C(O)=C(C(N)=O)C(=O)[C@@]2(O)C(O)=C3C(=O)c4c(O)cccc4[C@@](C)(O)[C@H]3[C@H](O)[C@@H]12 | Active | Active | – | – | – | – | – | – | – | – | – | – | – | – | – | – | – | – |
| CC[C@H](C)[C@H]1O[C@]2(C=C[C@@H]1C)C[C@@H]1C[C@@H](C/C=C(\C)[C@@H](O[C@H]3C[C@H](OC)[C@@H](O[C@H]4C[C@H](OC)[C@@H](O)[C@H](C)O4)[C@H](C)O3)[C@@H](C)/C=C/C=C3\CO[C@@H]4[C@H](O)C(C)=C[C@@H](C(=O)O1)[C@]34O)O2.CO[C@H]1C[C@H](O[C@H]2[C@H](C)O[C@@H](O[C@@H]3/C(C)=C/C[C@@H]4C[C@@H](C[C@]5(C=C[C@H](C)[C@@H](C(C)C)O5)O4)OC(=O)[C@@H]4C=C(C)[C@@H](O)[C@H]5OC/C(=C\C=C\[C@@H]3C)[C@]54O)C[C@@H]2OC)O[C@@H](C)[C@@H]1O [ABAMECTIN] | – | – | 71% | 20% | 93% | 90% | 6.7% | – | – | – | – | – | – | – | – | – | – | – |
| CCn1cc(C(=O)O)c(=O)c2cc3c(cc21)OCO3 [OXOLINIC ACID] | – | Active | – | – | – | – | – | 20% | 57% | 30% | 57% | 22% | Active | 71% | 74% | 30% | Active | 23.3% |
